From patent USRE39591E1, “6-O-substituted ketolides having antibacterial activity” (Abbott Laboratories, priority 1996, dated 2007)
In brackets after ≈: the same amount, converted by molar mass.

Tested on: up to 32 different microorganisms
Assay: in vitro antibacterial activity (MIC), agar dilution on Brain Heart Infusion (BHI) agar with Steers replicator
Type: cell-based
Settings: unit assumed
Procedure: Representative compounds of the present invention were assayed in vitro for antibacterial activity as follows: Twelve petri dishes containing successive aqueous dilutions of the test compound mixed with 10 mL of sterilized Brain Heart Infusion (BHI) agar (Difco 0148-01-5) were prepared. Each plate was inoculated with 1:100 (or 1:10 for slow-growing strains, such as Micrococcus and Streptococcus) dilutions of up to 32 different microorganisms, using a Steers replicator block. The inoculated plates were incubated at 35°-37° C. for 20 to 24 hours. In addition, a control plate, using BHI agar containing no test compound, was prepared and incubated at the beginning and end of each test.
An additional plate containing a compound having known susceptibility patterns for the organisms being tested and belonging to the same antibiotic class as the test compound was also prepared and incubated as a further control, as well as to provide test-to-test comparability. Erythromycin A was used for this purpose.
After incubation, each plate was visually inspected. The minimum inhibitory concentration (MIC) was defined as the lowest concentration of drug yielding no growth, a slight haze, or sparsely isolated colonies on the inoculum spot as compared to the growth control.

[1] = Candida albicans CCH 442 (code TT)
[2] = Enterococcus faecism ATCC 8043 (code II)
[3] = Escherichia coli DC-2 (code SS)
[4] = Escherichia coli JUHL (code QQ)
[5] = Haemophilis influenzae DILL AMP R (code WW)
[6] = Micrococcus luteus ATCC 4698 (code PP)
[7] = Micrococcus luteus ATCC 9341 (code OO)
[8] = Mycobacterium smegmatis ATCC 114 (code UU)
[9] = Nocardia Asteroides ATCC9970 (code VV)
[10] = Staphylococcus aureus 1775 (code GG)
[11] = Staphylococcus aureus A5177 (code BB)
[12] = Staphylococcus aureus A-5278 (code CC)
[13] = Staphylococcus aureus ATCC 6538P (code AA)
[14] = Staphylococcus aureus CMX 553 (code FF)
[15] = Staphylococcus aureus CMX 642A (code DD)
[16] = Staphylococcus aureus NCTC10649M (code EE)
[17] = Staphylococcus epidermidis 3519 (code HH)
[18] = Streptococcus Pneumonia 5649 (code ZZA)
[19] = Streptococcus Pneumonia 5979 (code ZZ)
[20] = Streptococcus Pneumonia ATCC6303 (code XX)
[21] = Streptococcus Pneumonia GYR 1171 (code YY)
[22] = Streptococcus agalactiae CMX 508 (code KK)
[23] = Streptococcus bovis A-5169 (code JJ)
[24] = Streptococcus pyogenes 930 (code MM)
[25] = Streptococcus pyogenes EES61 (code LL)
[26] = Streptococcus pyogenes PIU 2548 (code NN)

SMILES | MIC [1] [µg/mL] | MIC [2] [µg/mL] | MIC [3] [µg/mL] | MIC [4] [µg/mL] | MIC (Escherichia coli SS (code RR)) [µg/mL] | MIC [5] [µg/mL] | MIC [6] [µg/mL] | MIC [7] [µg/mL] | MIC [8] [µg/mL] | MIC [9] [µg/mL] | MIC [10] [µg/mL] | MIC [11] [µg/mL] | MIC [12] [µg/mL] | MIC [13] [µg/mL] | MIC [14] [µg/mL] | MIC [15] [µg/mL] | MIC [16] [µg/mL] | MIC [17] [µg/mL] | MIC [18] [µg/mL] | MIC [19] [µg/mL] | further results
CC[C@H]1OC(=O)[C@H](C)C(=O)[C@H](C)[C@@H](O[C@@H]2O[C@H](C)C[C@H](N(C)C)[C@H]2O)[C@@](C)(OCCCc2ccccc2)C[C@@H](C)C(=O)[C@H](C)[C@H]2OC(=O)O[C@@]21C [Example 73, Compound of Formula (IX): L is CO, T is O, R is —CH2CH2CH2-Phenyl] | > 100 | 0.1 | > 100 | > 100 | 3.1 | 16 | 0.2 | 0.1 | 0.78 | 0.39 | 100 | 0.39 | > 100 | 0.39 | 0.39 | 0.39 | 0.39 | 0.39 | 1 | 64 | MIC [20]: 0.125 µg/mL; MIC [21]: 0.125 µg/mL; MIC [22]: 0.05 µg/mL; MIC [23]: 0.05 µg/mL; MIC [24]: 12.5 µg/mL; MIC [25]: 0.05 µg/mL; MIC [26]: 0.2 µg/mL
CC[C@H]1OC(=O)[C@H](C)C(=O)[C@H](C)[C@@H](O[C@@H]2O[C@H](C)C[C@H](N(C)C)[C@H]2O)[C@@](C)(OCC=Cc2ccc(Cl)cc2)C[C@@H](C)C(=O)[C@H](C)[C@H]2OC(=O)O[C@@]21C [Example 74, Compound of Formula (IX): L is CO, T is O, R is —CH2CH═CH-(4-chlorophenyl)] | > 100 | 0.1 | > 100 | > 100 | 3.3 | 4 | 0.2 | 0.05 | 0.39 | 0.39 | > 100 | 0.2 | > 100 | 0.2 | 0.2 | 0.2 | 0.2 | 0.2 | 0.5 | 32 | MIC [20]: 0.125 µg/mL; MIC [21]: 0.125 µg/mL; MIC [22]: 0.05 µg/mL; MIC [23]: 0.05 µg/mL; MIC [24]: 50 µg/mL; MIC [25]: 0.05 µg/mL; MIC [26]: 0.39 µg/mL
CC[C@H]1OC(=O)[C@H](C)C(=O)[C@H](C)[C@@H](O[C@@H]2O[C@H](C)C[C@H](N(C)C)[C@H]2O)[C@@](C)(OCC=Cc2cnc3ccccc3c2)C[C@@H](C)C(=O)[C@H](C)[C@H]2OC(=O)O[C@@]21C [Example 75, Compound of Formula (IX): L is CO, T is O, R is —CH2CH═CH-(3-quinolyl)] | 100 | 0.1 | > 100 | 50 | 0.39 | 2 | 0.2 | 0.02 | 0.39 | 0.05 | > 100 | 0.1 | > 100 | 0.1 | 0.1 | 0.1 | 0.1 | 0.1 | 0.5 | 64 | MIC [20]: 0.03 µg/mL; MIC [21]: 0.03 µg/mL; MIC [22]: 0.01 µg/mL; MIC [23]: < 0.005 µg/mL; MIC [24]: 3.1 µg/mL; MIC [25]: 0.02 µg/mL; MIC [26]: 0.1 µg/mL
C=CCO[C@@]1(C)C[C@@H](C)C(=O)[C@H](C)[C@H]2NC(=O)O[C@]2(C)[C@@H](CC)OC(=O)[C@H](C)C(=O)[C@H](C)[C@H]1O[C@@H]1O[C@H](C)C[C@H](N(C)C)[C@H]1O [Example 102, Formula (IX): L is CO, T is NH, R is —CH2CH═CH2] | > 100 | 0.78 | > 100 | > 100 | 1.56 | 64 | 0.78 | 0.2 | 25 | 1.56 | > 100 | 1.56 | > 100 | 0.78 | 1.56 | 1.56 | 0.78 | 1.56 | 0.25 | > 64 | MIC [20]: 0.5 µg/mL; MIC [21]: 0.25 µg/mL; MIC [22]: 0.2 µg/mL; MIC [23]: 0.2 µg/mL; MIC [24]: > 100 µg/mL; MIC [25]: 0.2 µg/mL; MIC [26]: 0.2 µg/mL
CC[C@H]1OC(=O)[C@H](C)C(=O)[C@H](C)[C@@H](O[C@@H]2O[C@H](C)C[C@H](N(C)C)[C@H]2O)[C@@](C)(OCC=Cc2ccccc2)C[C@@H](C)C(=O)[C@H](C)[C@H]2NC(=O)O[C@@]21C [Example 103, Compound of Formula (IX): L is CO, T is NH, R is —CH2CH═CH-Phenyl] | > 100 | 0.05 | 100 | 100 | 0.39 | 4 | 0.1 | 0.01 | 0.2 | 0.02 | > 100 | 0.1 | > 100 | 0.1 | 0.1 | 0.1 | 0.1 | 0.1 | 0.25 | 128 | MIC [20]: 0.03 µg/mL; MIC [21]: 0.03 µg/mL; MIC [22]: 0.02 µg/mL; MIC [23]: 0.01 µg/mL; MIC [24]: 100 µg/mL; MIC [25]: 0.02 µg/mL; MIC [26]: 0.1 µg/mL
CC[C@H]1OC(=O)[C@H](C)C(=O)[C@H](C)[C@@H](O[C@@H]2O[C@H](C)C[C@H](N(C)C)[C@H]2O)[C@@](C)(OCC=Cc2cnc3ccccc3c2)C[C@@H](C)C(=O)[C@H](C)[C@H]2NC(=O)O[C@@]21C [Example 104, Compound of Formula (IX): L is CO, T is NH, R is —CH2CH═CH-(3-quinolyl)] | > 100 | 0.05 | 50 | 50 | 0.39 | 2 | 0.05 | ≤ 0.005 | 0.39 | 0.01 | > 100 | 0.05 | > 100 | 0.05 | 0.1 | 0.05 | 0.1 | 0.05 | 0.25 | 16 | MIC [20]: 0.03 µg/mL; MIC [21]: 0.03 µg/mL; MIC [22]: 0.01 µg/mL; MIC [23]: 0.01 µg/mL; MIC [24]: 1.56 µg/mL; MIC [25]: ≤ 0.005 µg/mL; MIC [26]: 0.1 µg/mL
CC[C@H]1OC(=O)[C@H](C)C(=O)[C@H](C)[C@@H](O[C@@H]2O[C@H](C)C[C@H](N(C)C)[C@H]2O)[C@@](C)(OCCCc2cnc3ccccc3c2)C[C@@H](C)C2=NCCN3C(=O)O[C@@]1(C)[C@H]3[C@H]2C [Example 171, Compound of Formula (VII): A, B, D, and E are H, R is —CH2CH2CH2-(3-quinolyl)] | > 100 | 0.05 | 25 | 25 | 0.39 | 2 | 0.39 | 0.01 | 0.78 | 0.05 | > 100 | 0.05 | > 100 | 0.1 | 0.05 | 0.05 | 0.02 | 0.1 | 1 | > 16 | MIC [20]: 0.03 µg/mL; MIC [21]: 0.03 µg/mL; MIC [22]: 0.02 µg/mL; MIC [23]: ≤ 0.005 µg/mL; MIC [24]: 25 µg/mL; MIC [25]: ≤ 0.005 µg/mL; MIC [26]: 0.2 µg/mL
CC[C@H]1OC(=O)[C@H](C)C(=O)[C@H](C)[C@@H](O[C@@H]2O[C@H](C)C[C@H](N(C)C)[C@H]2O)[C@@](C)(OCc2ccc3ccccc3c2)C[C@@H](C)C(=O)[C@H](C)[C@@H](O)[C@]1(C)O [Example 173] | 100 (≈ 140 µM) | 1.56 (≈ 2.19 µM) | > 100 | > 100 | 50 (≈ 70 µM) | 128 (≈ 179 µM) | 3.1 (≈ 4.34 µM) | 0.78 (≈ 1.09 µM) | 3.1 (≈ 4.34 µM) | 6.2 (≈ 8.68 µM) | 100 (≈ 140 µM) | 50 (≈ 70 µM) | 100 (≈ 140 µM) | 12.5 (≈ 17.5 µM) | 12.5 (≈ 17.5 µM) | 12.5 (≈ 17.5 µM) | 12.5 (≈ 17.5 µM) | 12.5 (≈ 17.5 µM) | 4 (≈ 5.6 µM) | 32 (≈ 44.8 µM) | MIC [20]: 2 µg/mL (≈ 2.8 µM); MIC [21]: 2 µg/mL (≈ 2.8 µM); MIC [22]: 0.78 µg/mL (≈ 1.09 µM); MIC [23]: 0.78 µg/mL (≈ 1.09 µM); MIC [24]: 50 µg/mL (≈ 70 µM); MIC [25]: 0.78 µg/mL (≈ 1.09 µM); MIC [26]: 3.1 µg/mL (≈ 4.34 µM)
